Read-outs that look alike come from different tables or passages of the source. No end group written: not given here.
Experiments:
mammalian cells = conditions: cited from earlier work
[1] = cited from earlier work
Excerpt: Natural antimicrobial peptides (AMPs) are produced in the majority of living organisms as protection against various pathogens, including viruses. […] Therefore, the objective of this study was to identify and characterise the inhibitory potential of the latarcin peptide (Ltc 1, […]) against dengue virus replication in human cells. Ltc 1 is one of approximately seven latarcin peptides, which are produced in the venom gland of Lachesana tarab ...

Vero cells = experiment: Cytotoxicity, Non-Radioactive Cell Proliferation assay; assay type: cell-based; conditions: Vero cells (method), 72 h
Method: The cytotoxicity of the Ltc 1 peptides was evaluated by determining the maximal non-toxic dose (MNTD) and the 50% cytotoxic concentration (CC50) of the cells using the Non-Radioactive Cell Proliferation assay (Promega, USA) according to the manufacturer’s instructions. […] Vero cells were seeded at 1×10^4 cells/well in triplicate under optimal conditions (37°C, 5% CO2 in a humidified incubator) in 96-well plates with blank controls (media only) and cell controls (cells only). After an overnight incubation, the cells were treated with increasing concentrations of Ltc 1 peptide (0, 4, 8, 16, 32, 64 and 120 μM) with DMEM medium supplemented with 2% FBS and the cell culture was analysed after 72 h. The percentage of cell viability was calculated as follows: […] (absorbance of treated cells/absorbance of untreated cells) × 100. The MNTD and CC50 values were calculated from the dose-response curves.

[2] = target: T1, dengue NS2B-NS3pro (DENV2 serine protease, recombinant single chain NS2B (G4-T-G4) NS3pro) (Dengue virus type 2, UniProt P14340); experiment: Dengue NS2B-NS3 protease (NS2B-NS3pro) assay; assay type: biochemical, Dengue virus serotype-2 (DENV2); conditions: 2 μM NS2B-NS3pro, 100 μM Boc-Gly-Arg-Arg-AMC, pH 8.5, 200 mM Tris-HCl, 30 min pre-incubation + 30 min with substrate, fluorescence ex 350/em 440 nm, triplicate, repeated twice, ± SD, read-out: IC50 (inhibitory concentration of 50% of enzyme activity)
T1 construct: 1394–1440 in DENV2 polyprotein; 1476–1660 in DENV2 polyprotein; made in house; host or cells: E. coli
Method: The NS2B-NS3pro assay was performed to examine whether the Ltc 1 peptide inhibits the DENV2 serine protease. Briefly, a single chain NS2B (G4-T-G4) NS3pro was produced as a recombinant protein in E. coli as previously described. The end point reaction mixture was performed in black 96-well plates, which contained 2 μM recombinant NS2B-NS3pro, 100 μM fluorogenic peptide substrate (Boc-Gly-Arg-Arg-AMC) and varying concentrations of the Ltc 1 peptide (0.1 to 40 μM) buffered at pH 8.5 with 200 mM Tris-HCl in a total volume of 200 μl. The reaction mixtures without peptide, substrate with the peptides, enzyme and different concentrations of the peptides were used as controls. […] Measurements were performed in triplicate using a Tecan Infinite M200 Pro fluorescence spectrophotometer (Tecan Group Ltd., Switzerland). […] The fluorescence values obtained with the no-inhibitor control (0.0 μM peptide) were set at 100%, and those in the presence of peptide were calculated as a percentage of the control using non-linear regression in GraphPad Prism (version 5.01) software. The IC50 was calculated from nonlinear regression fitting of the signal vs. concentration data points to the standard dose–response equation Y = Bottom + (Top - Bottom)/(1 + 10^^((X - LogIC50))). […] The inhibition percentage was calculated using the following formula: […]

DENV2 = experiment: Dose-response assay, viral RNA by one-step qRT-PCR; assay type: cell-based, Dengue virus serotype-2 (DENV2); conditions: HepG2 infected with DENV2, MOI 2, peptide 0-80 μM added after infection, quadruplicate experiments, ± SD
Method: This assay was performed to evaluate the 50% effective concentration (EC50) of the Ltc 1 peptide against DENV2. HepG2 cells were grown in six-well microplates (1.5 × 10^6 cells/well) for 24 h in quadruplicate experiments. The cell culture media were removed and the cells were washed three times with PBS. Then, fresh medium containing the virus supernatant was added at MOI of 2, followed by incubation for 1 h with gentle shaking every 15 min. The viral residues were removed by washing with PBS, and serial dilutions of the Ltc 1 peptide (0, 2.5, 5, 10, 20, 40, 80 μM) were added. […] The cell supernatants were collected and stored at -80°C for viral load determination using viral RNA and were quantified using one step qReal time-PCR.
The DENV2 copy number was quantified in the culture supernatants using one-step quantitative real-time PCR. Known copies of the viral RNA were 10-fold serially diluted to generate a standard curve. The viral RNA was extracted using the QIAmp viral RNAmini kit (QIAGEN, Germany), and the qRT-PCR was performed using a SYBR Green Master Kit (Qiagen, Germany). Triplicate reactions were performed for each sample, and a no template control was included as a negative control. Absolute quantification was performed using an ABI7500 machine (Applied Biosystems, Foster City, CA). The results were analysed using Sequence Detection Software Version 1.3 (Applied Biosystems, Foster City, CA). The percentage of viral inhibition (%) was calculated as follows: 100 – (viral copy number of treated cells/viral copy number of untreated cells) × 100.

HepG2 cells = experiment: Real Time Cell Proliferation Assay (RTCA, xCELLigence); assay type: cell-based, human
Method: This assay was performed to test the real time effects of the Ltc 1 peptide on cell viability. Cell proliferation was measured using the xCELLigence Real-Time Cellular Analysis (RTCA) system (Roche, Germany) as described previously. Cell viability and growth were monitored continuously after applying increasing concentrations of the Ltc 1 peptide (0, 12.5, 25, 50, 100, 150, 200, 250 μM). Briefly, the background measurements were recorded after adding 100 μl culture medium to the wells. Next, the cells were seeded at a density of 1 × 10^4 cell/well in a 16-well plate with electrodes for 18 h to allow the cells to grow to log phase. The cells were treated with different concentrations of peptide dissolved in cell culture medium and continuously monitored for up to 100 h. The cell sensor impedance was expressed as an arbitrary unit named the cell index. The cell index was recorded every 5 minutes using a RTCA analyser. To eliminate variation between the wells, the cell index values were normalised to the value at the beginning of the treatment.

[3] = system: dengue protease NS2B-NS3pro; conditions: compared to the other standard serine protease inhibitors; cited from earlier work
Excerpt: Previous studies reported various inhibitors against dengue protease, including standard serine protease inhibitors, substrate based inhibitors, and non-substrate based inhibitors.

T1 sequence (P14340 1476-1660): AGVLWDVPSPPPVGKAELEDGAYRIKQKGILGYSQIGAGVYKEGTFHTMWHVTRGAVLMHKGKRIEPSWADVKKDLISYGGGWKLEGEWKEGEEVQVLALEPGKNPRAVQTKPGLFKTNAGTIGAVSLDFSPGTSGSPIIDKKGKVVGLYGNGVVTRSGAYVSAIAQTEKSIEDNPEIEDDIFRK
T1 sequence (P14340 1394-1440): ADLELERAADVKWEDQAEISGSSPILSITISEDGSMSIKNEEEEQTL

Row | Substance | induction of cell apoptosis (mammalian cells) | haemolytic activity [1] | cell viability (Vero cells; 25 μM peptide) | CC50 (50% cytotoxic concentration) (Vero cells; 0-120 μM peptide, DMEM 2% FBS, 37°C, triplicate, ± SD) | IC50 ([2]; 37°C) | IC50 ([2]; 40°C (high fever-like)) | EC50 (DENV2; 24 h) | EC50 (DENV2; 48 h) | EC50 (DENV2; 72 h) | effect on cell proliferation (HepG2 cells; 25 μM, 110 h, cell index similar to untreated control cells) | effect on cell proliferation (HepG2 cells; 50 μM, after 66 h of incubation, HepG2 cells) | maximal non-toxic dose (MNTD) (HepG2 cells; HepG2 cells, real-time cell index, concentrations 0-250 μM) | effect on cell proliferation (HepG2 cells; concentrations higher than 50 μM, all time-points) | inhibitory effect against the dengue protease [3]
1 | SMWSGMWRRKLKKLRNALKKKLKGE [Ltc 1] | induces cellular changes that lead to cell apoptosis | moderate haemolytic activity | 80% | approximately 52.51 ± 3.6 μM | 12.7 ± 3.2 µM | 6.58 ± 4.1 µM | 8.3 ± 1.2 µM | 7.6 ± 2.7 µM | 6.8 ± 2.5 µM | insignificant | significantly decreased | 25 µM | toxic to the cells | 
2 | aprotinin |  |  |  |  |  |  |  |  |  |  |  |  |  | picomolar levels

From PMC4073510, “Identification of natural antimicrobial agents to treat dengue infection: In vitro analysis of latarcin peptide activity against dengue virus” (BMC Microbiology, 2014)
